Measured values from patent US20200037609A1, “HERBICIDAL COMPOSITIONS AND METHODS OF USE THEREOF” (The Regents of the University of California, priority 2017, published 2020).

Columns and labels:
[1] = biological target: T1, Arabidopsis thaliana housekeeping DHAD (pDHAD) (Arabidopsis thaliana, UniProt Q9LIR4); experiment: DHAD enzymatic inhibition assay (phenylhydrazine derivatization, LC-MS); format: biochemical
T1 construct: […]; 6xHis (N); made in house; host or cells: E. coli BL21 (DE3)
T1 sequence (Q9LIR4 35-608): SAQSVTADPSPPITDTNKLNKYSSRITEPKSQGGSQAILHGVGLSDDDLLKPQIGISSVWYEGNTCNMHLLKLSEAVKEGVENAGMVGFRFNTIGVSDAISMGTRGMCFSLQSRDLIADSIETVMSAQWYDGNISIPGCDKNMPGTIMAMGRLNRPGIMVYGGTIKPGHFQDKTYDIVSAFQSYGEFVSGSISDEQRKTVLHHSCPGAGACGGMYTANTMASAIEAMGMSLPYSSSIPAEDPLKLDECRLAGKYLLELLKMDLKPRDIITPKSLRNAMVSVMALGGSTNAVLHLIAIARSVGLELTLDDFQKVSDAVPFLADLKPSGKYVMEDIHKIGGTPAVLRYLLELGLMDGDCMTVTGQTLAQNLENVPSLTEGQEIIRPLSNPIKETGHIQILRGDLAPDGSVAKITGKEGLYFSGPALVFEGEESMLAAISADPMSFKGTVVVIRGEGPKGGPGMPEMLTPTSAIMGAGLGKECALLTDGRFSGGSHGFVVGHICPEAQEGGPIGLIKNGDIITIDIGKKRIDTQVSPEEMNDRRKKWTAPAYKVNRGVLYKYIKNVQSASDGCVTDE
Protocol: Enzymatic activity reactions were carried out in […] volumes containing 50 mM storage buffer, 10 mM (±)-Sodium 2,3-dihydroxyisovalerate hydrate (DHAD substrate) and 1 μM purified DHAD enzyme. After incubation for 30 minutes at 30° C., the reaction was stopped by adding an equal volume of ethanol. 1/10 volumes of 100 mM phenylhydrozine was added at room temperature for 30 minutes to derivatize the DHAD-synthesized molecule (3-methyl-2-oxo-butanoic acid) into a detectable derivatization product (DDP). See FIG. 5A for an overview of reactions.
Inhibition assays were carried out according to the reactions described above. First, phenylhydrozine was added to 3-methyl-2-oxo-butanoic acid to validate the derivatization reaction. Next, DHAD substrate was incubated with 1 μM purified DHAD enzyme from A. thaliana (with or without DMSO) then derivatized with phenylhydrozine to validate the activity of the purified DHAD enzyme. Finally, DHAD substrate was incubated with 1 μM purified DHAD enzyme from A. thaliana and 1 mM aspterric acid in DMSO then derivatized with phenylhydrozine to determine if DHAD was inhibited by aspterric acid. 20 μL of the reaction mixture was subject to LC-MS analysis, and DDP was detected by UV absorption at 350 nm. The area of the peak that corresponded to DDP was used to quantify the amount of (±)-Sodium 2,3-dihydroxyisovalerate hydrate that was converted into DDP.
Inhibition assays were carried out according to the reactions described above by incubating purified DHAD enzymes (either the housekeeping DHAD from Aspergillus terreus, the housekeeping DHAD from Arabidopsis thaliana, or AstD from Aspergillus terreus) with aspterric acid at various concentrations. For AstD, up to 8 mM of aspterric acid was tested. […] The half maximal inhibitory concentration (IC50) and the effect of aspterric acid on the enzyme kinetics of each purified DHAD enzyme was calculated based on the initial reaction rates observed in the inhibition assays.
Biochemical assay of DHADs. […] The area of the HPLC peak with UV absorption at 350 nm was used to quantify the amount of 6. […]

[2] = system: Arabidopsis thaliana Col-0 flowers; experiment: Cross experiment, AA as chemical hybridization agent; format: in vivo; conditions: 250 μM AA; for offspring obtained: listed as AA
Protocol: Flowers of Arabidopsis thaliana Col-0 plants were treated with aspterric acid. The treated flowers that were missing all six fertile stamens were selected as the female parent in a cross with a male parent of known genetic identity. Non-treated Arabidopsis plants containing a BASTA resistant gene were used as male parent to donate pollen to the plants where the flowers were missing all six fertile stamens. 2-week old F1 progeny resulting from the cross were treated with Finale (11.3% Glufosinate-ammonium) at a 1:2000 dilution.
To make male sterile A. thaliana, AA was added to chemical hybridization agent (CHA) formulation (250 μM AA, 2% ethanol, 0.1% Tween-80, 1% corn oil in water), which has less inhibition effect on the growth of A. thaliana. Flowers of the AA treated Col-0 were selected as the female parent. […] 2-week old F1 progeny resulting from the cross were treated by Finale (11.3% glufosinate-ammonium) at 1:2000 dilution.

[3] = female AA treated wild type x male un-treated glufosinate resistant plant

SMILES: CC(C)=C1CC[C@]23CO[C@H](C2)[C@@](O)(C(=O)O)CC[C@@H]13 [aspterric acid]
- pDHAD activity in presence of AA ([1]; 10 μM AA): abolished pDHAD activity
- DHAD enzymatic activity in presence of aspterric acid ([1]; 1 mM aspterric acid, 1 μM enzyme): completely inhibited
- mode of inhibition of pDHAD ([1]; kinetic analyses): competitive inhibitor
- offspring obtained ([2]; female AA treated wild type x male AA treated glufosinate resistant plant): No offspring was obtained and No
- inherit resistance [2, 3]: Yes
- offspring obtained [2, 3]: Offspring was obtained and Yes
